Tested on: MV-4-11 cells
Assay: Gene expression microarray analysis (Affymetrix PrimeView) and GSEA
Type: cell-based, human
Parameters: RFU PODN (11730768_x_at) / Fold change /veh PODN (11730768_x_at) / RFU LINC00158 (11744669_a_at) / Fold change /veh LINC00158 (11744669_a_at) / RFU DUSP10 (11751237_a_at) / Fold change /veh DUSP10 (11751237_a_at) / RFU ID3 (11757404_x_at) / Fold change /veh ID3 (11757404_x_at) / RFU PLEKHG5 (11737974_s_at) / Fold change /veh PLEKHG5 (11737974_s_at) / RFU LRRC4B (11730491_at) / Fold change /veh LRRC4B (11730491_at) / RFU GIMAP4 (11747438_a_at) / Fold change /veh GIMAP4 (11747438_a_at) / RFU KRT8 (11758183_x_at) / Fold change /veh KRT8 (11758183_x_at) / RFU CNN1 (11734310_a_at) / Fold change /veh CNN1 (11734310_a_at) / RFU VPS37D (11726825_at) / Fold change /veh VPS37D (11726825_at) / RFU C10orf10 (11716522_x_at) / Fold change /veh C10orf10 (11716522_x_at) / RFU KIR2DL2 /// KIR2DL4 /// KIR2DL5A /// KIR2DL5B /// KIR2DS1 /// KIR2DS2 /// KIR2DS3 /// KIR2DS4 /// KIR3DL3 /// KIR3DL3 /// KIR3DS1 (11738374_at) / Fold change /veh KIR2DL2 /// KIR2DL4 /// KIR2DL5A /// KIR2DL5B /// KIR2DS1 /// KIR2DS2 /// KIR2DS3 /// KIR2DS4 /// KIR3DL3 /// KIR3DL3 /// KIR3DS1 (11738374_at) / RFU C1QL1 (11718748_at) / Fold change /veh C1QL1 (11718748_at) / RFU TMPRSS4 (11747572_a_at) / Fold change /veh TMPRSS4 (11747572_a_at) / RFU HAMP (11756126_x_at) / Fold change /veh HAMP (11756126_x_at) / RFU RNFT2 (11725882_a_at) / Fold change /veh RNFT2 (11725882_a_at) / RFU NR4A2 (11747474_a_at) / Fold change /veh NR4A2 (11747474_a_at) / RFU ABCC12 (11746883_a_at) / Fold change /veh ABCC12 (11746883_a_at) / RFU TMEM136 (11760407_x_at) / Fold change /veh TMEM136 (11760407_x_at) / RFU CLDN22 /// WWC2 (11732394_at) / Fold change /veh CLDN22 /// WWC2 (11732394_at) / RFU HLA-DPB1 (11760878_x_at) / Fold change /veh HLA-DPB1 (11760878_x_at) / RFU SPINT1 (11716480_a_at) / Fold change /veh SPINT1 (11716480_a_at) / RFU GAP43 (11754022_s_at) / Fold change /veh GAP43 (11754022_s_at) / RFU A4GNT (11735810_at) / Fold change /veh A4GNT (11735810_at) / RFU PRB3 (11715151_x_at) / Fold change /veh PRB3 (11715151_x_at) / RFU TUBB4B (11761932_at) / Fold change /veh TUBB4B (11761932_at) / RFU CAPN14 (11732068_a_at) / Fold change /veh CAPN14 (11732068_a_at) / RFU TMCC2 (11721928_a_at) / Fold change /veh TMCC2 (11721928_a_at) / RFU IRGQ (11745062_a_at) / Fold change /veh IRGQ (11745062_a_at) / RFU FAM174B (11720279_a_at) / Fold change /veh FAM174B (11720279_a_at) / RFU TMPRSS4 (11748680_a_at) / Fold change /veh TMPRSS4 (11748680_a_at) / RFU FAM212B (11763350_a_at) / Fold change /veh FAM212B (11763350_a_at) / RFU PLEKHG5 (11743358_a_at) / Fold change /veh PLEKHG5 (11743358_a_at) / RFU ZSCAN30 (11745921_a_at) / Fold change /veh ZSCAN30 (11745921_a_at) / RFU CMKLR1 (11741424_a_at) / Fold change /veh CMKLR1 (11741424_a_at) / RFU LOC101060620 /// MAPK8IP1 (11723275_at) / Fold change /veh LOC101060620 /// MAPK8IP1 (11723275_at) / RFU SPTSSB (11747773_x_at) / Fold change /veh SPTSSB (11747773_x_at) / RFU PRSS12 (11739890_at) / Fold change /veh PRSS12 (11739890_at) / RFU BIN1 (11741810_x_at) / Fold change /veh BIN1 (11741810_x_at) / RFU WNT11 (11732464_a_at) / Fold change /veh WNT11 (11732464_a_at) / RFU C10orf10 (11716521_a_at) / Fold change /veh C10orf10 (11716521_a_at) / RFU C5orf56 (11738089_at) / Fold change /veh C5orf56 (11738089_at) / RFU CYB561 (11721691_x_at) / Fold change /veh CYB561 (11721691_x_at) / RFU ANKRD19P (11752326_a_at) / Fold change /veh ANKRD19P (11752326_a_at) / RFU OR2T12 /// OR2T33 /// OR2T8 (11738714_s_at) / Fold change /veh OR2T12 /// OR2T33 /// OR2T8 (11738714_s_at) / RFU VCAN (11748164_a_at) / Fold change /veh VCAN (11748164_a_at) / RFU JSRP1 (11732532_at) / Fold change /veh JSRP1 (11732532_at) / RFU KRTAP10-11 (11738290_x_at) / Fold change /veh KRTAP10-11 (11738290_x_at) / RFU MYO3A (11730013_a_at) / Fold change /veh MYO3A (11730013_a_at) / RFU EBF3 (11725865_a_at) / Fold change /veh EBF3 (11725865_a_at) / RFU CAMK2N1 (11719241_x_at) / Fold change /veh CAMK2N1 (11719241_x_at) / RFU C5orf56 (11738088_a_at) / Fold change /veh C5orf56 (11738088_a_at) / RFU OLFML3 (11715873_a_at) / Fold change /veh OLFML3 (11715873_a_at) / RFU LOC100653217 /// NTM (11731650_a_at) / Fold change /veh LOC100653217 /// NTM (11731650_a_at) / RFU MAPK11 (11762145_a_at) / Fold change /veh MAPK11 (11762145_a_at) / RFU FIZ1 (11724087_x_at) / Fold change /veh FIZ1 (11724087_x_at) / RFU OASL (11726364_x_at) / Fold change /veh OASL (11726364_x_at) / RFU SOX15 (11748057_x_at) / Fold change /veh SOX15 (11748057_x_at) / RFU CD79A (11719716_a_at) / Fold change /veh CD79A (11719716_a_at) / RFU HIST1H1D (11736915_at) / Fold change /veh HIST1H1D (11736915_at) / RFU CASKIN2 (11723855_a_at) / Fold change /veh CASKIN2 (11723855_a_at) / RFU LOC730098 (11760151_x_at) / Fold change /veh LOC730098 (11760151_x_at) / RFU OR4N2 (11742367_at) / Fold change /veh OR4N2 (11742367_at) / RFU PRRT2 (11749266_a_at) / Fold change /veh PRRT2 (11749266_a_at) / RFU SNX32 (11753110_a_at) / Fold change /veh SNX32 (11753110_a_at) / RFU CDHR5 (11726645_a_at) / Fold change /veh CDHR5 (11726645_a_at) / RFU RCAN1 (11760418_a_at) / Fold change /veh RCAN1 (11760418_a_at) / RFU FAM167A (11723789_a_at) / Fold change /veh FAM167A (11723789_a_at) / RFU FAM26E (11764081_at) / Fold change /veh FAM26E (11764081_at) / RFU ISYNA1 (11749810_s_at) / Fold change /veh ISYNA1 (11749810_s_at) / RFU ACY1 (11761880_at) / Fold change /veh ACY1 (11761880_at) / RFU 11764098_at / Fold change /veh 11764098_at / RFU SAMD14 (11745864_x_at) / Fold change /veh SAMD14 (11745864_x_at) / RFU NPB (11741838_a_at) / Fold change /veh NPB (11741838_a_at) / RFU TMPRSS6 (11731388_a_at) / Fold change /veh TMPRSS6 (11731388_a_at) / RFU KRTAP10-2 (11738614_at) / Fold change /veh KRTAP10-2 (11738614_at) / RFU ARHGAP8 /// PRR5-ARHGAP8 (11727945_x_at) / Fold change /veh ARHGAP8 /// PRR5-ARHGAP8 (11727945_x_at) / RFU KRTAP5-7 /// NADSYN1 (11734609_at) / Fold change /veh KRTAP5-7 /// NADSYN1 (11734609_at) / RFU RASL12 (11751679_a_at) / Fold change /veh RASL12 (11751679_a_at) / RFU CDKN2B (11736163_a_at) / Fold change /veh CDKN2B (11736163_a_at) / RFU PRF1 (11729649_at) / Fold change /veh PRF1 (11729649_at) / RFU, ZNF638 /// ZNF638-IT1 / Fold change vs veh, ZNF638 /// ZNF638-IT1 / RFU, PANK3 / Fold change vs veh, PANK3 / RFU, SH3YL1 / Fold change vs veh, SH3YL1 / RFU, ZEB2 / Fold change vs veh, ZEB2 / RFU, NRIP1 / Fold change vs veh, NRIP1 / RFU, PTTG1IP / Fold change vs veh, PTTG1IP / RFU, CAPN2 / Fold change vs veh, CAPN2 / RFU, MED14 / Fold change vs veh, MED14 / RFU, SNORA58 / Fold change vs veh, SNORA58 / RFU, C1orf63 / Fold change vs veh, C1orf63 / RFU, LRRFIP1 / Fold change vs veh, LRRFIP1 / RFU, NDUFAF7 / Fold change vs veh, NDUFAF7 / RFU, SLC12A2 / Fold change vs veh, SLC12A2 / RFU, IBTK / Fold change vs veh, IBTK / RFU, ESF1 / Fold change vs veh, ESF1 / Fold change vs veh, TMEM50B / RFU, TAOK1 / Fold change vs veh, TAOK1 / RFU, ACBD3 / Fold change vs veh, ACBD3 / RFU, TMA16 / Fold change vs veh, TMA16 / RFU, RWDD3 / Fold change vs veh, RWDD3 / RFU, BCAT1 / Fold change vs veh, BCAT1 / RFU, EDEM3 / Fold change vs veh, EDEM3 / RFU, TMEM33 / Fold change vs veh, TMEM33 / RFU, WDR75 / Fold change vs veh, WDR75 / RFU, AHCTF1 / Fold change vs veh, AHCTF1 / RFU, TFRC / Fold change vs veh, TFRC / RFU, ZDHHC17 / Fold change vs veh, ZDHHC17 / RFU, NOM1 / Fold change vs veh, NOM1 / RFU, ARL8B / Fold change vs veh, ARL8B / RFU, ZBTB11 / Fold change vs veh, ZBTB11 / RFU, TAMM41 / Fold change vs veh, TAMM41 / RFU, KIAA1704 /// LOC100996395 / Fold change vs veh, KIAA1704 /// LOC100996395 / RFU, ING1 / Fold change vs veh, ING1 / RFU, TRMT61B / Fold change vs veh, TRMT61B / RFU, FUBP3 / Fold change vs veh, FUBP3 / RFU, TP53 / Fold change vs veh, TP53 / RFU, TNKS2 / Fold change vs veh, TNKS2 / RFU, ZFP14 / Fold change vs veh, ZFP14 / RFU, ACTR2 / Fold change vs veh, ACTR2 / RFU, PPP3R1 / Fold change vs veh, PPP3R1 / RFU, PIK3R1 / Fold change vs veh, PIK3R1 / RFU, HNRNPA1 / Fold change vs veh, HNRNPA1 / RFU, RNF170 / Fold change vs veh, RNF170 / RFU, ZNF28 / Fold change vs veh, ZNF28 / RFU, RNGTT / Fold change vs veh, RNGTT / RFU, OGT / Fold change vs veh, OGT / RFU, BRD1 / Fold change vs veh, BRD1 / RFU, MARS / Fold change vs veh, MARS / RFU, ZNF655 / Fold change vs veh, ZNF655 / RFU, FAHD1 / Fold change vs veh, FAHD1 / RFU, BDP1 / Fold change vs veh, BDP1 / RFU, LRRCC1 / Fold change vs veh, LRRCC1 / RFU, ARID1A / Fold change vs veh, ARID1A / RFU, ZNF146 / Fold change vs veh, ZNF146 / RFU, ZNF330 / Fold change vs veh, ZNF330 / RFU, GPN3 / Fold change vs veh, GPN3 / RFU, C9orf123 / Fold change vs veh, C9orf123 / RFU, N4BP2L2 / Fold change vs veh, N4BP2L2 / RFU, ARFIP1 / Fold change vs veh, ARFIP1 / RFU, FAM179B / Fold change vs veh, FAM179B / RFU, BCL10 / Fold change vs veh, BCL10 / RFU, UHRF1BP1L / Fold change vs veh, UHRF1BP1L / RFU, BET1 / Fold change vs veh, BET1 / RFU, CNOT2 / Fold change vs veh, CNOT2 / RFU, ZNF268 / Fold change vs veh, ZNF268 / Fold change vs veh, ZNF507 / RFU, DGCR2 / Fold change vs veh, DGCR2 / RFU, WDSUB1 / Fold change vs veh, WDSUB1 / Fold change vs veh, HSP90B1 /// MIR3652 / RFU, ADSS / Fold change vs veh, ADSS / RFU, GK / Fold change vs veh, GK / RFU, ZNF148 / Fold change vs veh, ZNF148 / RFU, TAF9 / Fold change vs veh, TAF9 / RFU, SLC1A5 / Fold change vs veh, SLC1A5 / RFU, SLMO2 / Fold change vs veh, SLMO2 / RFU, ABCC4 / Fold change vs veh, ABCC4 / RFU, LOC101060439 /// RAP1B / Fold change vs veh, LOC101060439 /// RAP1B / RFU, RFX7 / Fold change vs veh, RFX7 / RFU, GTPBP10 / Fold change vs veh, GTPBP10 / RFU, CNEP1R1 / Fold change vs veh, CNEP1R1 / RFU, BIVM-ERCC5 /// ERCC5 / Fold change vs veh, BIVM-ERCC5 /// ERCC5 / RFU, ILF3 / Fold change vs veh, ILF3 / RFU 11762660_at / Fold change /veh 11762660_at / RFU VCAN (11757783_s_at) / Fold change /veh VCAN (11757783_s_at) / RFU DDX43 (11728927_at) / Fold change /veh DDX43 (11728927_at) / RFU KRT8 (11758188_x_at) / Fold change /veh KRT8 (11758188_x_at) / RFU NKD1 (11759106_at) / Fold change /veh NKD1 (11759106_at) / RFU SRD5A1 (11742802_a_at) / Fold change /veh SRD5A1 (11742802_a_at) / RFU TPSAB1 /// TPSB2 (11721975_s_at) / Fold change /veh TPSAB1 /// TPSB2 (11721975_s_at) / RFU GSTM3 (11746129_a_at) / Fold change /veh GSTM3 (11746129_a_at) / RFU IL23R (11737362_x_at) / Fold change /veh IL23R (11737362_x_at) / RFU TMEM51 (11727254_a_at) / Fold change /veh TMEM51 (11727254_a_at) / RFU PIWIL2 (11732686_x_at) / Fold change /veh PIWIL2 (11732686_x_at) / RFU ORM1 (11744905_x_at) / Fold change /veh ORM1 (11744905_x_at) / RFU CCDC152 (11743942_at) / Fold change /veh CCDC152 (11743942_at) / RFU ECM1 (11717891_a_at) / Fold change /veh ECM1 (11717891_a_at) / RFU IL23R (11748794_a_at) / Fold change /veh IL23R (11748794_a_at) / RFU TNFAIP8L3 (11732012_x_at) / Fold change /veh TNFAIP8L3 (11732012_x_at) / RFU MBOAT4 (11741988_at) / Fold change /veh MBOAT4 (11741988_at) / RFU 11764193_at / Fold change /veh 11764193_at / RFU TMEM53 (11763286_at) / Fold change /veh TMEM53 (11763286_at) / RFU MAGEB2 (11727129_at) / Fold change /veh MAGEB2 (11727129_at) / RFU TMEM200A (11744735_a_at) / Fold change /veh TMEM200A (11744735_a_at) / RFU CCDC152 (11751479_a_at) / Fold change /veh CCDC152 (11751479_a_at) / RFU FAM211A (11726209_a_at) / Fold change /veh FAM211A (11726209_a_at) / RFU RGS16 (11746705_a_at) / Fold change /veh RGS16 (11746705_a_at) / RFU VCAN (11755009_s_at) / Fold change /veh VCAN (11755009_s_at) / RFU RHOB (11743442_s_at) / Fold change /veh RHOB (11743442_s_at) / RFU RGS16 (11720943_a_at) / Fold change /veh RGS16 (11720943_a_at) / RFU RGS16 (11720944_at) / Fold change /veh RGS16 (11720944_at) / RFU, VPS4B / Fold change vs veh, VPS4B / RFU, CREB1 / Fold change vs veh, CREB1 / RFU, DNAJC13 / Fold change vs veh, DNAJC13 / RFU, GNAQ / Fold change vs veh, GNAQ / RFU, CDK5R1 / Fold change vs veh, CDK5R1 / RFU, ZRANB3 / Fold change vs veh, ZRANB3 / RFU, CUL4A / Fold change vs veh, CUL4A / RFU, CCNY / Fold change vs veh, CCNY / RFU, UFL1 / Fold change vs veh, UFL1 / RFU, COG3 / Fold change vs veh, COG3 / RFU, DIAPH2 / Fold change vs veh, DIAPH2 / RFU, SKA2 / Fold change vs veh, SKA2 / RFU, AFF3 / Fold change vs veh, AFF3 / RFU, LMF1 / Fold change vs veh, LMF1 / RFU, IPO11 / Fold change vs veh, IPO11 / RFU, DFFB / Fold change vs veh, DFFB / RFU, FOXP1 / Fold change vs veh, FOXP1 / RFU, CARD8 / Fold change vs veh, CARD8 / RFU, STRN3 / Fold change vs veh, STRN3 / RFU, ADK / Fold change vs veh, ADK / RFU, RASSF2 / Fold change vs veh, RASSF2 / RFU, WIPF1 / Fold change vs veh, WIPF1 / RFU, LARP1B / Fold change vs veh, LARP1B / RFU, RASA1 / Fold change vs veh, RASA1 / RFU, RB1 / Fold change vs veh, RB1 / RFU, PPFIA1 / Fold change vs veh, PPFIA1 / RFU, MAT2A / Fold change vs veh, MAT2A / RFU, CCT5 / Fold change vs veh, CCT5 / RFU, WDR92 / Fold change vs veh, WDR92 / RFU, CUX1 / Fold change vs veh, CUX1 / RFU, TTC7A / Fold change vs veh, TTC7A / RFU, TMEM135 / Fold change vs veh, TMEM135 / RFU, DEPTOR / Fold change vs veh, DEPTOR / RFU, CPM / Fold change vs veh, CPM / RFU, DNAJB6 / Fold change vs veh, DNAJB6 / RFU, CACNA2D3 / Fold change vs veh, CACNA2D3 / RFU, DTX4 / Fold change vs veh, DTX4 / RFU, TFCP2 / Fold change vs veh, TFCP2 / RFU, GMCL1 /// GMCL1P1 / Fold change vs veh, GMCL1 /// GMCL1P1 / RFU, AEBP2 / Fold change vs veh, AEBP2 / RFU, SNHG1 /// SNORD22 /// SNORD25 /// SNORD26 /// SNORD27 /// SNORD28 /// SNORD29 /// SNORD31 / Fold change vs veh, SNHG1 /// SNORD22 /// SNORD25 /// SNORD26 /// SNORD27 /// SNORD28 /// SNORD29 /// SNORD31 / Fold change (Aza/veh), C12orf56 (ProbeSet 11735607_a_at) / Fold change (ACY-1035/veh), C12orf56 (ProbeSet 11735607_a_at) / Fold change (Aza/veh), FGFR1OP (ProbeSet 11751329_s_at) / Fold change (ACY-1035/veh), FGFR1OP (ProbeSet 11751329_s_at) / Fold change (Aza/veh), VPS36 (ProbeSet 11739960_a_at) / Fold change (ACY-1035/veh), VPS36 (ProbeSet 11739960_a_at) / RFU SYPL1 (11715823_x_at) / Fold change /veh SYPL1 (11715823_x_at) / RFU IGFBP7 (11715501_s_at) / Fold change /veh IGFBP7 (11715501_s_at) / RFU REEP3 (11722064_at) / Fold change /veh REEP3 (11722064_at) / RFU IGLL1 (11728026_x_at) / Fold change /veh IGLL1 (11728026_x_at): dose or concentration left out as unconfirmed
Conditions: MV-4-11 cells, 48 hours

Nc1ccc(-c2cccs2)cc1NC(=O)c1ccc2c(c1)cc(C1CC1)n2CCN1CCOCC1 [ACY-1035]
RFU SRD5A1 (11742802_a_at): 49.09 RFU

Source: paper PMC5218480 (PLoS ONE, 2017)
